{
  "source": "patent US20100168216A1",
  "about": "“PROSTAGLANDIN PHARMACEUTICAL COMPOSITIONS” (CTG PHARMA S.R.L., priority 2007, published 2010)",
  "key": {"Thy-1 mRNA": {"test_system": "Thy-1 mRNA", "assay": "Studies on rat retina: NMDA-induced loss of Thy-1 mRNA (neuroprotection)", "type": "in vivo, Wistar rats", "conditions": "Thy-1 mRNA levels (relative to rhodopsin), PEG value taken as 100; topical 5 μl of 2% in 50% PEG bilaterally twice a day, 2 days before and 7 days after intravitreal NMDA", "procedure": "The method described by Osborne N. N. et al. (2002) previously reported was used. Briefly, two groups of 16 Wistar rats (200-250 g) received either 5 μl doses of topical test compound (2% in 50% polyethylene glycol-PEG) or 5 μl of vehicle bilaterally twice a day for 2 days. On the third day N-methyl-D-aspartate (NMDA) (5 μl in sterile water) was injected intra-vitreally into a single eye of each animal. The other eye was injected with sterile water. The animals were treated then with test compound or vehicle for 7 days. The Thy-1 antigen is associated with ganglion cells and intraocular injections of NMDA cause a loss of Thy-1 mRNA. The rats were then killed and the retinas removed for mRNA analysis for Thy-1 antigen. Results are expressed as % value to the Thy-1 mRNA levels (relative to rhodopsin) of the treated groups, taking PEG value as 100."}, "[1]": {"test_system": "IOP (Intraocular Pressure)", "assay": "Studies of IOP (intraocular pressure) on rabbit", "type": "in vivo, New Zealand albino rabbits", "conditions": "IOP mmHg as % of PEG value (100); topical application of 2% test compound, measured 60 minutes after", "procedure": "The method by Osborne N. N. et al. (2002) previously reported was used. Briefly, two groups of adult male New Zealand albino rabbits weighing 3-3.5 kg were used in the experiments. IOP was measured using a properly calibrated tonometer immediately after topical application of 1 drop of 0.4% benoxinate hydrochloride. The animals received a topical application of 2% of test compound or PEG and measures taken 60 minutes after. Results are expressed as % value to the IOP mmHg values of the treatment groups, taking PEG value as 100."}},
  "data": [
    {"smiles": "O=C(CCCC=CC[C@@H]1[C@@H](CC[C@@H](O)CCc2ccccc2)[C@H](O)C[C@@H]1O)Oc1ccc(-c2cc(=S)ss2)cc1", "note": "(stereo in doubt) [Compound Example 2, (5Z)-7-[(1R,2R,3R,5S)-3,5-dihydroxy-2-[(3R)-3-hydroxy-5-phenylpentyl]cyclopentyl]-5-heptenoic acid 4-(3H-1,2-dithiole-3-thione-5-yl)-phenyl ester]", "values": [
      {"measurement": "NMDA effects (%)", "setting": "Thy-1 mRNA", "value": 52, "unit": "%"},
      {"measurement": "IOP values (%)", "setting": "[1]", "value": 85, "unit": "%"}
    ]}
  ]
}
